Results on seven cell lines are retold here after the supplement of paper PMC10307832.

Holding throughout (assay): relative viability (nuclei count vs DMSO), 5 days (fraction); higher = more cells survive
Compound in one assay: CN(C)C[C@@H]1CCn2cc(c3ccccc32)C2=C(C(=O)NC2=O)c2cn(c3ccccc23)CCO1 [Ruboxistaurin]
The method in brief: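 Lung cancer cell lines received five library-drug doses (not always all listed) spaced by √10, pinned on vehicle-anchored 1536-well plates after an overnight stay at 37 °C. Five days later, with no medium change, nuclei were Hoechst-stained, imaged at 4× and counted with MetaXpress. Viability is treated-well nuclei relative to vehicle-well nuclei, as a median across plates. Passing plates had control CV below 25% and at least one doubling.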

Compound in assay [1]: CN(C)C[C@@H]1CCn2cc(c3ccccc32)C2=C(C(=O)NC2=O)c2cn(c3ccccc23)CCO1 [Ruboxistaurin] + CS(=O)(=O)CCNCc1ccc(-c2ccc3ncnc(Nc4ccc(OCc5cccc(F)c5)c(Cl)c4)c3c2)o1 [Lapatinib] (partner 2 µM)
Summed up:
(§1)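 One day after seeding in 1536-well plates, lung cancer cell lines were dosed by pin tool. Dosing was either single-drug or a fixed anchor-drug dose plus five library-drug doses (not always all listed) in √10 steps. After 5 days, nuclei were stained in one fix-and-stain step and counted on 4× images, and relative viability is the nuclei count of treated wells over that of vehicle wells, given as the median of duplicate plates.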

Compound in the assay “Ruboxistaurin + AZD7762”: CN(C)C[C@@H]1CCn2cc(c3ccccc32)C2=C(C(=O)NC2=O)c2cn(c3ccccc23)CCO1 [Ruboxistaurin] + NC(=O)Nc1cc(-c2cccc(F)c2)sc1C(=O)N[C@H]1CCCNC1 [AZD7762] (partner 0.2 µM)
The method in brief:
as §1

Compound in assay [2]: CN(C)C[C@@H]1CCn2cc(c3ccccc32)C2=C(C(=O)NC2=O)c2cn(c3ccccc23)CCO1 [Ruboxistaurin] + O=C(CCCCCCC(=O)Nc1ccccc1)NO [Vorinostat] (partner 1 µM)
The method in brief: as §1

Compound in assay [3]: CN(C)C[C@@H]1CCn2cc(c3ccccc32)C2=C(C(=O)NC2=O)c2cn(c3ccccc23)CCO1 [Ruboxistaurin] + CC(=O)Nc1cccc(-n2c(=O)n(C3CC3)c(=O)c3c(Nc4ccc(I)cc4F)n(C)c(=O)c(C)c32)c1 [Trametinib] (partner 0.02 µM)
Summed up:
as §1

Consider NCI-H838, for which the relative viability with Ruboxistaurin (0.08 µM) was 1.03; with Ruboxistaurin (0.8 µM) it was 0.839; with Ruboxistaurin (2.53 µM), 0.964; with Ruboxistaurin (8 µM) it was 0.923; in assay [1] (first compound 0.08 µM) it was 1.07; in assay [1] (first compound 0.8 µM), 0.813. Also, the relative viability in assay [1] (first compound 2.53 µM) was 0.929; in assay [1] (first compound 8 µM), 0.875; in the assay with Ruboxistaurin + AZD7762 (first compound 0.08 µM) it was 0.749; with Ruboxistaurin + AZD7762 (first compound 0.8 µM), 0.855; in the assay with Ruboxistaurin + AZD7762 (first compound 2.53 µM) it was 0.877; in the assay with Ruboxistaurin + AZD7762 (first compound 8 µM), 0.977. In addition, the relative viability in assay [2] (first compound 0.08 µM) came to 0.813; in assay [2] (first compound 0.8 µM), 0.665; in assay [2] (first compound 2.53 µM) it was 0.742; in assay [2] (first compound 8 µM), 0.734; in assay [3] (first compound 0.08 µM), 0.58; in assay [3] (first compound 0.8 µM) it was 0.461. The relative viability in assay [3] (first compound 2.53 µM) turned out to be 0.513; in assay [3] (first compound 8 µM) it was 0.504.
As to NCI-H3122, the relative viability in the assay with Ruboxistaurin (0.08 µM) was found to be 0.98; in the assay with Ruboxistaurin (0.8 µM), 0.963; with Ruboxistaurin (2.53 µM) it was 1.01; with Ruboxistaurin (8 µM), 1.07; in assay [1] (first compound 0.08 µM), 1.02; in assay [1] (first compound 0.8 µM), 1.02. Besides, the relative viability in assay [1] (first compound 2.53 µM) came out at 1; in assay [1] (first compound 8 µM) it was 1.08; with Ruboxistaurin + AZD7762 (first compound 0.08 µM), 0.98; in the assay with Ruboxistaurin + AZD7762 (first compound 0.8 µM) it was 0.909; in the assay with Ruboxistaurin + AZD7762 (first compound 2.53 µM) it was 1.05; in the assay with Ruboxistaurin + AZD7762 (first compound 8 µM), 1.1. The relative viability in assay [2] (first compound 0.08 µM) was 1.14; in assay [2] (first compound 0.8 µM), 0.948; in assay [2] (first compound 2.53 µM) it was 1.03; in assay [2] (first compound 8 µM) it was 1.3; in assay [3] (first compound 0.08 µM), 0.241; in assay [3] (first compound 0.8 µM) it was 0.179. Besides, the relative viability in assay [3] (first compound 2.53 µM) stood at 0.227; in assay [3] (first compound 8 µM), 0.232.
As to SK-MES-1, the relative viability with Ruboxistaurin (0.08 µM) was determined as 1.07; in the assay with Ruboxistaurin (0.8 µM), 0.91; in the assay with Ruboxistaurin (2.53 µM) it was 1.02; with Ruboxistaurin (8 µM), 0.898; in assay [1] (first compound 0.08 µM) it was 0.515; in assay [1] (first compound 0.8 µM) it was 0.413. Moreover, the relative viability in assay [1] (first compound 2.53 µM) came out at 0.5; in assay [1] (first compound 8 µM) it was 0.425; in assay [2] (first compound 0.08 µM), 1.11; in assay [2] (first compound 0.8 µM) it was 1.03; in assay [2] (first compound 2.53 µM), 1.03; in assay [2] (first compound 8 µM) it was 0.95. Besides, the relative viability in assay [3] (first compound 0.08 µM) was 0.629; in assay [3] (first compound 0.8 µM), 0.508; in assay [3] (first compound 2.53 µM) it was 0.492; in assay [3] (first compound 8 µM), 0.442.
Turning to NCI-H1944, the relative viability with Ruboxistaurin (0.08 µM) is 0.958; with Ruboxistaurin (0.8 µM), 0.897; with Ruboxistaurin (2.53 µM), 0.932; with Ruboxistaurin (8 µM) it was 0.819; in assay [1] (first compound 0.08 µM), 0.874; in assay [1] (first compound 0.8 µM), 0.71. For the same cell line, the relative viability in assay [1] (first compound 2.53 µM) amounted to 0.731; in assay [1] (first compound 8 µM) it was 0.819; with Ruboxistaurin + AZD7762 (first compound 0.08 µM), 0.477; with Ruboxistaurin + AZD7762 (first compound 0.8 µM), 0.544; with Ruboxistaurin + AZD7762 (first compound 2.53 µM), 0.524; with Ruboxistaurin + AZD7762 (first compound 8 µM), 0.492. The relative viability in assay [2] (first compound 0.08 µM) amounted to 0.552; in assay [2] (first compound 0.8 µM) it was 0.552; in assay [2] (first compound 2.53 µM) it was 0.558; in assay [2] (first compound 8 µM), 0.427; in assay [3] (first compound 0.08 µM) it was 0.402; in assay [3] (first compound 0.8 µM) it was 0.312. In addition, the relative viability worked out at 0.395 in assay [3] (first compound 2.53 µM) and 0.358 in assay [3] (first compound 8 µM).
For LK-2, the relative viability was found to be 0.952 with Ruboxistaurin (0.08 µM); 1 in the assay with Ruboxistaurin (0.8 µM); 1.12 in the assay with Ruboxistaurin (2.53 µM); 0.833 with Ruboxistaurin (8 µM); 1.07 in assay [1] (first compound 0.08 µM); 0.866 in assay [1] (first compound 0.8 µM). The relative viability in assay [1] (first compound 2.53 µM) came out at 0.938; in assay [1] (first compound 8 µM), 0.739; with Ruboxistaurin + AZD7762 (first compound 0.08 µM), 0.402; in the assay with Ruboxistaurin + AZD7762 (first compound 0.8 µM), 0.448; with Ruboxistaurin + AZD7762 (first compound 2.53 µM), 0.377; with Ruboxistaurin + AZD7762 (first compound 8 µM) it was 0.19. In addition, the relative viability in assay [2] (first compound 0.08 µM) is 0.362; in assay [2] (first compound 0.8 µM), 0.323; in assay [2] (first compound 2.53 µM) it was 0.33; in assay [2] (first compound 8 µM) it was 0.222; in assay [3] (first compound 0.08 µM), 0.65; in assay [3] (first compound 0.8 µM), 0.933. For the same cell line, the relative viability in assay [3] (first compound 2.53 µM) worked out at 0.85; in assay [3] (first compound 8 µM) it was 0.589.
Take PC-3 [JPC-3]: the relative viability was 1.12 in the assay with Ruboxistaurin (0.08 µM); 0.97 with Ruboxistaurin (0.8 µM); 1.11 with Ruboxistaurin (2.53 µM); 1.09 in the assay with Ruboxistaurin (8 µM); 0.428 in assay [1] (first compound 0.08 µM); 0.417 in assay [1] (first compound 0.8 µM). For the same cell line, the relative viability stood at 0.44 in assay [1] (first compound 2.53 µM); 0.391 in assay [1] (first compound 8 µM); 0.869 with Ruboxistaurin + AZD7762 (first compound 0.08 µM); 0.754 with Ruboxistaurin + AZD7762 (first compound 0.8 µM); 0.906 with Ruboxistaurin + AZD7762 (first compound 2.53 µM); 0.675 with Ruboxistaurin + AZD7762 (first compound 8 µM). Moreover, the relative viability in assay [2] (first compound 0.08 µM) stood at 0.895; in assay [2] (first compound 0.8 µM) it was 0.917; in assay [2] (first compound 2.53 µM), 0.839; in assay [2] (first compound 8 µM), 0.837; in assay [3] (first compound 0.08 µM), 0.821; in assay [3] (first compound 0.8 µM), 0.653. Further, the values for the relative viability in assay [3] (first compound 2.53 µM) and in assay [3] (first compound 8 µM) were 0.715 and 0.685, respectively.
Regarding COR-L23, the relative viability in the assay with Ruboxistaurin (0.08 µM) was 1.1; with Ruboxistaurin (0.8 µM), 0.955; in the assay with Ruboxistaurin (2.53 µM), 1.14; in the assay with Ruboxistaurin (8 µM) it was 1.17; in assay [1] (first compound 0.08 µM), 1.23; in assay [1] (first compound 0.8 µM) it was 0.914. The relative viability amounted to 1.09 in assay [1] (first compound 2.53 µM); 1.08 in assay [1] (first compound 8 µM); 0.61 in assay [2] (first compound 0.08 µM); 0.442 in assay [2] (first compound 0.8 µM); 0.522 in assay [2] (first compound 2.53 µM); 0.501 in assay [2] (first compound 8 µM). The relative viability in assay [3] (first compound 0.08 µM) stood at 0.749; in assay [3] (first compound 0.8 µM), 0.581; in assay [3] (first compound 2.53 µM) it was 0.571; in assay [3] (first compound 8 µM), 0.59.
